Test results as given in ChEMBL document CHEMBL3885861, “Open TG-GATES”.

Organism: Rattus norvegicus
Assay: Open TG-GATES - Regimen: Daily Repeat
Type: toxicity, organism-based, Sprague-Dawley
Parameters: regimen Daily Repeat, gender Male, age 6 weeks
Settings: in vivo, po, 5 mg/kg, route gavage, dose level Middle; for APTT / Bas / Eos / Fbg / Hb / Ht / Lym / MCH / MCHC / MCV / Mono / Neu / PT / Plat / RBC / Ret / WBC: tissue Blood; for KIDNEY_L / KIDNEY_R / KIDNEY_TOTAL: tissue Kidney; for LIVER: tissue Liver; for ALP / ALT / AST / BUN / CRE / Ca / Cl / DBIL / GLC / IP / K / LDH / Na / PL / RALB / TBIL / TC / TG / TP / gamma-GTP: tissue Plasma

`O=P1(N(CCCl)CCCl)NCCCO1` (stereo not drawn) [CYCLOPHOSPHAMIDE ANHYDROUS] showed a TERMINAL_BW (72 h, time 3 day) of 226.6 g, an APTT (72 h, time 3 day) of 21.9 s and a Bas (72 h, time 3 day) of 0%. The Eos (72 h, time 3 day) was 1%, the Fbg (72 h, time 3 day) was 272.4 mg/dL and the Hb (72 h, time 3 day) was 13 g/dL. For the same molecule, the Ht (72 h, time 3 day) was 39.1%, the Lym (72 h, time 3 day) was 81.6% and the MCH (72 h, time 3 day) was 21.9 pg. The MCHC (72 h, time 3 day) was 33.2%, the MCV (72 h, time 3 day) was 65.8 fL and the Mono (72 h, time 3 day) was 2.4%. For the same molecule, the Neu (72 h, time 3 day) was 14%, the PT (72 h, time 3 day) was 16.9 s and the Plat (72 h, time 3 day) was 114.8 x10_4/uL. The RBC (72 h, time 3 day) was 593 x10_4/ul, the Ret (72 h, time 3 day) was 6.3% and the WBC (72 h, time 3 day) was 54.2 x10_2/uL. For the same molecule, the KIDNEY_L (72 h, time 3 day) was 1 g, the KIDNEY_R (72 h, time 3 day) was 1 g and the KIDNEY_TOTAL (72 h, time 3 day) was 2 g. For the same molecule, the LIVER (72 h, time 3 day) was 10.7 g, the ALP (72 h, time 3 day) was 1691.2 IU/L and the ALT (72 h, time 3 day) was 40.6 IU/L. It also gave an AST (72 h, time 3 day) of 68.6 IU/L, a BUN (72 h, time 3 day) of 17 mg/dL and a CRE (72 h, time 3 day) of 0.2 mg/dL. The Ca (72 h, time 3 day) was 10.9 mg/dL, the Cl (72 h, time 3 day) was 104.6 meq/L and the DBIL (72 h, time 3 day) was 0.002 mg/dL. It also gave a GLC (72 h, time 3 day) of 182.8 mg/dL, an IP (72 h, time 3 day) of 8 mg/dL and a K (72 h, time 3 day) of 4.1 meq/L. For the same molecule, the LDH (72 h, time 3 day) was 172 IU/L, the Na (72 h, time 3 day) was 141.6 meq/L and the PL (72 h, time 3 day) was 149.6 mg/dL. The RALB (72 h, time 3 day) was 3 g/dL, the TBIL (72 h, time 3 day) was 0.022 mg/dL and the TC (72 h, time 3 day) was 75.4 mg/dL. The TG (72 h, time 3 day) was 94.4 mg/dL, the TP (72 h, time 3 day) was 5.5 g/dL and the gamma-GTP (72 h, time 3 day) was 1 IU/L. For the same molecule, the TERMINAL_BW ([…], time 7 day) was 245.9 g, the TERMINAL_BW ([…], time 14 day) was 288.6 g and the TERMINAL_BW ([…], time 28 day) was 359.3 g. It also gave an APTT ([…], time 7 day) of 22 s, a Bas ([…], time 7 day) of 0% and an Eos ([…], time 7 day) of 0.6%. For the same molecule, the Fbg ([…], time 7 day) was 273.8 mg/dL, the Hb ([…], time 7 day) was 13.5 g/dL and the Ht ([…], time 7 day) was 40.4%. The Lym ([…], time 7 day) was 82.4%, the MCH ([…], time 7 day) was 20.9 pg and the MCHC ([…], time 7 day) was 33.4%. The MCV ([…], time 7 day) was 62.7 fL, the Mono ([…], time 7 day) was 3.2% and the Neu ([…], time 7 day) was 12.6%. It also gave a PT ([…], time 7 day) of 15.8 s, a Plat ([…], time 7 day) of 133.9 x10_4/uL and an RBC ([…], time 7 day) of 644.2 x10_4/ul. For the same molecule, the Ret ([…], time 7 day) was 5.3%, the WBC ([…], time 7 day) was 36.4 x10_2/uL and the APTT ([…], time 14 day) was 22 s. The Bas ([…], time 14 day) was 0%, the Eos ([…], time 14 day) was 1.4% and the Fbg ([…], time 14 day) was 305.8 mg/dL. The Hb ([…], time 14 day) was 13.8 g/dL, the Ht ([…], time 14 day) was 40.5% and the Lym ([…], time 14 day) was 75.2%. The MCH ([…], time 14 day) was 20.4 pg, the MCHC ([…], time 14 day) was 34% and the MCV ([…], time 14 day) was 59.9 fL. The Mono ([…], time 14 day) was 4.6%, the Neu ([…], time 14 day) was 17.2% and the PT ([…], time 14 day) was 14.6 s. The Plat ([…], time 14 day) was 116.3 x10_4/uL, the RBC ([…], time 14 day) was 676.8 x10_4/ul and the Ret ([…], time 14 day) was 3.5%. The WBC ([…], time 14 day) was 27.7 x10_2/uL, the APTT ([…], time 28 day) was 21.7 s and the Bas ([…], time 28 day) was 0%. It also gave an Eos ([…], time 28 day) of 1.4%, a Fbg ([…], time 28 day) of 308 mg/dL and a Hb ([…], time 28 day) of 14.5 g/dL. The Ht ([…], time 28 day) was 42.5%, the Lym ([…], time 28 day) was 73% and the MCH ([…], time 28 day) was 19.3 pg. The MCHC ([…], time 28 day) was 34.3%, the MCV ([…], time 28 day) was 56.5 fL and the Mono ([…], time 28 day) was 3.6%. The Neu ([…], time 28 day) was 20.8%, the PT ([…], time 28 day) was 16 s and the Plat ([…], time 28 day) was 110.7 x10_4/uL. For the same molecule, the RBC ([…], time 28 day) was 752.2 x10_4/ul, the Ret ([…], time 28 day) was 3% and the WBC ([…], time 28 day) was 35.5 x10_2/uL. For the same molecule, the KIDNEY_L ([…], time 7 day) was 1 g, the KIDNEY_R ([…], time 7 day) was 1 g and the KIDNEY_TOTAL ([…], time 7 day) was 2 g. It also gave a KIDNEY_L ([…], time 14 day) of 1.2 g, a KIDNEY_R ([…], time 14 day) of 1.2 g and a KIDNEY_TOTAL ([…], time 14 day) of 2.3 g. It also gave a KIDNEY_L ([…], time 28 day) of 1.3 g, a KIDNEY_R ([…], time 28 day) of 1.3 g and a KIDNEY_TOTAL ([…], time 28 day) of 2.6 g. For the same molecule, the LIVER ([…], time 7 day) was 10.8 g, the LIVER ([…], time 14 day) was 12.3 g and the LIVER ([…], time 28 day) was 14.6 g. For the same molecule, the ALP ([…], time 7 day) was 1412.8 IU/L, the ALT ([…], time 7 day) was 38.2 IU/L and the AST ([…], time 7 day) was 65 IU/L. For the same molecule, the BUN ([…], time 7 day) was 18.8 mg/dL, the CRE ([…], time 7 day) was 0.2 mg/dL and the Ca ([…], time 7 day) was 11 mg/dL. For the same molecule, the Cl ([…], time 7 day) was 105.6 meq/L, the DBIL ([…], time 7 day) was 0 mg/dL and the GLC ([…], time 7 day) was 180.4 mg/dL. For the same molecule, the IP ([…], time 7 day) was 6.8 mg/dL, the K ([…], time 7 day) was 3.9 meq/L and the LDH ([…], time 7 day) was 130 IU/L. For the same molecule, the Na ([…], time 7 day) was 142.8 meq/L, the PL ([…], time 7 day) was 141.6 mg/dL and the RALB ([…], time 7 day) was 2.9 g/dL. It also gave a TBIL ([…], time 7 day) of 0.016 mg/dL, a TC ([…], time 7 day) of 74.6 mg/dL and a TG ([…], time 7 day) of 115.2 mg/dL. The TP ([…], time 7 day) was 5.5 g/dL, the gamma-GTP ([…], time 7 day) was 1.4 IU/L and the ALP ([…], time 14 day) was 1134.4 IU/L. The ALT ([…], time 14 day) was 36.6 IU/L, the AST ([…], time 14 day) was 57.2 IU/L and the BUN ([…], time 14 day) was 17.2 mg/dL. The CRE ([…], time 14 day) was 0.2 mg/dL, the Ca ([…], time 14 day) was 10.6 mg/dL and the Cl ([…], time 14 day) was 108.6 meq/L. It also gave a DBIL ([…], time 14 day) of 0 mg/dL, a GLC ([…], time 14 day) of 171 mg/dL and an IP ([…], time 14 day) of 7.1 mg/dL. For the same molecule, the K ([…], time 14 day) was 4 meq/L, the LDH ([…], time 14 day) was 148.8 IU/L and the Na ([…], time 14 day) was 143.6 meq/L. It also gave a PL ([…], time 14 day) of 150.4 mg/dL, an RALB ([…], time 14 day) of 3 g/dL and a TBIL ([…], time 14 day) of 0.016 mg/dL. The TC ([…], time 14 day) was 80.4 mg/dL, the TG ([…], time 14 day) was 129.2 mg/dL and the TP ([…], time 14 day) was 5.7 g/dL. For the same molecule, the gamma-GTP ([…], time 14 day) was 1 IU/L, the ALP ([…], time 28 day) was 973.8 IU/L and the ALT ([…], time 28 day) was 34.4 IU/L. The AST ([…], time 28 day) was 57.8 IU/L, the BUN ([…], time 28 day) was 16.8 mg/dL and the CRE ([…], time 28 day) was 0.2 mg/dL. The Ca ([…], time 28 day) was 10.5 mg/dL, the Cl ([…], time 28 day) was 106.6 meq/L and the DBIL ([…], time 28 day) was 0.002 mg/dL. It also gave a GLC ([…], time 28 day) of 190.2 mg/dL, an IP ([…], time 28 day) of 6.5 mg/dL and a K ([…], time 28 day) of 3.8 meq/L. It also gave an LDH ([…], time 28 day) of 133 IU/L, a Na ([…], time 28 day) of 144 meq/L and a PL ([…], time 28 day) of 135.8 mg/dL. It also gave an RALB ([…], time 28 day) of 3.1 g/dL, a TBIL ([…], time 28 day) of 0.024 mg/dL and a TC ([…], time 28 day) of 68.8 mg/dL. The TG ([…], time 28 day) was 111.6 mg/dL, the TP ([…], time 28 day) was 5.9 g/dL and the gamma-GTP ([…], time 28 day) was 1.2 IU/L.
